Results published in ChEMBL document CHEMBL5291721, “A preclinical secondary pharmacology resource illuminates target-adverse drug reaction associations of marketed drugs” (Nat Commun, 2023).

Legend:
Histamine H1 receptor = Histamine H1 receptor (Homo sapiens, UniProt P35367)
Cannabinoid receptor 1 = Cannabinoid receptor 1 (Homo sapiens, UniProt P21554); type: functional, cell-based
Estrogen receptor = target: T1, Estrogen receptor (Homo sapiens, UniProt P03372); type: functional
T1 sequence (P03372 whole entry): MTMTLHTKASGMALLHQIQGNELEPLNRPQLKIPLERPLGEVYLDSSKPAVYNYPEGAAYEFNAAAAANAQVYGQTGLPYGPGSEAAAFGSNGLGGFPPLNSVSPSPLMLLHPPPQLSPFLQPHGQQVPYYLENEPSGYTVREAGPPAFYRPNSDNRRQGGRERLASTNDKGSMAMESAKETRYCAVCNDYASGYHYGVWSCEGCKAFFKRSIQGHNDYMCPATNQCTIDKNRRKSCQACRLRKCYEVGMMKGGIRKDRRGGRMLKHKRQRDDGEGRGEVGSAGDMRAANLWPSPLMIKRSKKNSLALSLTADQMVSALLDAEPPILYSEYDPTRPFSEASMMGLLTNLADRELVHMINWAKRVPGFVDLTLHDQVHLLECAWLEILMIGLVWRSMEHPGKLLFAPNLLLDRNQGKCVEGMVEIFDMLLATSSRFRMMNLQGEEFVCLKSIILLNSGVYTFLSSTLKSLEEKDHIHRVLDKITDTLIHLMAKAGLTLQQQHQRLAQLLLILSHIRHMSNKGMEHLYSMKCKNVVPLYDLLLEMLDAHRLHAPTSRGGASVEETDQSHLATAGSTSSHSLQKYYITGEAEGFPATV

[1] = target: Glutamate receptor ionotropic, NMDA 1 (Rattus norvegicus, UniProt P35439)
Endothelin-1 receptor = target: T2, Endothelin-1 receptor (Homo sapiens, UniProt P25101)
T2 sequence (P25101 whole entry): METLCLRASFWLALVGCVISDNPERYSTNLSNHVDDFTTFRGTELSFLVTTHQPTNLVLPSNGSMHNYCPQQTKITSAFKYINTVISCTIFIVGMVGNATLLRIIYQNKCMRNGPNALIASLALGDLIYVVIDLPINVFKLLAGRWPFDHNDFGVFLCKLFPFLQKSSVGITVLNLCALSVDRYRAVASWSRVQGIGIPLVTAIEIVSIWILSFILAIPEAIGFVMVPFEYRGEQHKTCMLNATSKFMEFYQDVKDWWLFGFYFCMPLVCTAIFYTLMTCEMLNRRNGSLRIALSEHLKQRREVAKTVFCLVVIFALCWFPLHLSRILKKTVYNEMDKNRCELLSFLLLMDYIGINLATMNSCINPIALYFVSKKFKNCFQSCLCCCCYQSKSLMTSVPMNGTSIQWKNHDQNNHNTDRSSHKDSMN

[2] = target: Vascular endothelial growth factor receptor 2 (Homo sapiens, UniProt P35968); type: functional
[3] = target: Prostaglandin G/H synthase 1 (Homo sapiens, UniProt P23219); type: functional
[4] = target: T3, Neuropeptide Y receptor type 2 (Homo sapiens, UniProt P49146)
T3 sequence (P49146 whole entry): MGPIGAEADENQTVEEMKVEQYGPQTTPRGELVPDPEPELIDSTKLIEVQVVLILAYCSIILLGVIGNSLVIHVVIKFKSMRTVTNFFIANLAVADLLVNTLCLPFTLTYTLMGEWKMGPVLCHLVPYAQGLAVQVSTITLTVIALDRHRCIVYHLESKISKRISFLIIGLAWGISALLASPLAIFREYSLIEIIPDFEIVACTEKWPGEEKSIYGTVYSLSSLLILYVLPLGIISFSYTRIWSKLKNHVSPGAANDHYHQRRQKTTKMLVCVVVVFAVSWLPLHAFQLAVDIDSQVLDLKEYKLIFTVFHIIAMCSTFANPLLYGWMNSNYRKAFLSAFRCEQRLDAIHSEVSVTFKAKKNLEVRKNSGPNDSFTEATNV

Progesterone receptor = target: T4, Progesterone receptor (Homo sapiens, UniProt P06401)
T4 sequence (P06401 whole entry): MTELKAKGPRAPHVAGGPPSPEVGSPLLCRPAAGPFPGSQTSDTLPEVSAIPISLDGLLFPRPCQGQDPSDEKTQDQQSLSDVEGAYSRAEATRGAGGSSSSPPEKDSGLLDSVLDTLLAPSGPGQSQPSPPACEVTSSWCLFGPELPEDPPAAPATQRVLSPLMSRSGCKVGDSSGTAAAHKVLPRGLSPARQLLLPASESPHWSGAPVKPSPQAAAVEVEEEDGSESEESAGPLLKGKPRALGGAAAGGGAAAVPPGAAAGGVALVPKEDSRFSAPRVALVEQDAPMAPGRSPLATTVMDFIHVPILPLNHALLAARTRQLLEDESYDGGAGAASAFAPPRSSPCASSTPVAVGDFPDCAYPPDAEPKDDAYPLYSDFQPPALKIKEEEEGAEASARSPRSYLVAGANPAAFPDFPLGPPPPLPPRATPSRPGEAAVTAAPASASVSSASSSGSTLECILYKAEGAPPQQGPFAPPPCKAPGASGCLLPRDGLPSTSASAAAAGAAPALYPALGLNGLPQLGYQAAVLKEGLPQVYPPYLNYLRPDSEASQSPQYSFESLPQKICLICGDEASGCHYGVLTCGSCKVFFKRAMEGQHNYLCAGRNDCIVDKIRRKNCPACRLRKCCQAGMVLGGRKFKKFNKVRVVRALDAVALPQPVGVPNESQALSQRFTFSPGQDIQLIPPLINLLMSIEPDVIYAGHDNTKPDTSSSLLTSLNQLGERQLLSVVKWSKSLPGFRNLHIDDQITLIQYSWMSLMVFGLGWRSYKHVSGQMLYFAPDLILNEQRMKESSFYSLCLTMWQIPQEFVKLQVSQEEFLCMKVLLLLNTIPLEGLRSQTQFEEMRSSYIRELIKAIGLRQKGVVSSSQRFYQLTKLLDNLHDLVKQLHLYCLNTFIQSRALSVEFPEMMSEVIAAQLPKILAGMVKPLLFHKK
Further: assay procedure not described here.

Sequence of Histamine H1 receptor (P35367 whole entry): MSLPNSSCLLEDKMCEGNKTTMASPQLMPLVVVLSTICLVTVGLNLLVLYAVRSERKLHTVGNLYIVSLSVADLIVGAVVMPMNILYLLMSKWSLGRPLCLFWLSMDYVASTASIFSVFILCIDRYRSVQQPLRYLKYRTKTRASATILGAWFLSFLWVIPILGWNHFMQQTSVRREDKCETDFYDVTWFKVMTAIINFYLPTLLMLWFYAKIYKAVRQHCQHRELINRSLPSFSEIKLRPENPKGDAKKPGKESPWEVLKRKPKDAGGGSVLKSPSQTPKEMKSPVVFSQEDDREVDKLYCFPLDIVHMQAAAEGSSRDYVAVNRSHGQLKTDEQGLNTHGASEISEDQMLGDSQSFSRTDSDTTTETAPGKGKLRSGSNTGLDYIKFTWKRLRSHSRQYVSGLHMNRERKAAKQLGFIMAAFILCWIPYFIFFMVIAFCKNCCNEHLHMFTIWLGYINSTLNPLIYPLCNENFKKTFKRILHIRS
Sequence of Prostaglandin G/H synthase 1 (P23219 whole entry): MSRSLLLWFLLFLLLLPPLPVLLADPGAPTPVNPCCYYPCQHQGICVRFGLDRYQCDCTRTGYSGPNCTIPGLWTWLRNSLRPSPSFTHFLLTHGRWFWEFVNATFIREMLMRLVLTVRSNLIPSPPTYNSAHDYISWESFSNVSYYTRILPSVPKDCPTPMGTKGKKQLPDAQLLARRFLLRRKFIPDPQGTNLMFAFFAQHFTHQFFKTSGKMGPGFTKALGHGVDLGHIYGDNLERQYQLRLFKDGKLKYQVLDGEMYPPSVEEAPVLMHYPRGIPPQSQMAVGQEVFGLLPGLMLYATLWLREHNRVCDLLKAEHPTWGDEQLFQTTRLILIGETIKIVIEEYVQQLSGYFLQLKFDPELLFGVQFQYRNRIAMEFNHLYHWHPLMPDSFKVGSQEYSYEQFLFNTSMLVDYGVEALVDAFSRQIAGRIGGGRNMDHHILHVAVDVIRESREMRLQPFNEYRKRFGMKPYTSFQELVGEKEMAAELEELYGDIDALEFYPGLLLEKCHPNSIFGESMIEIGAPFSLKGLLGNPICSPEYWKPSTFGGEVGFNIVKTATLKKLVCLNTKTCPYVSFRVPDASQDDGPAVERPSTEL
Sequence of Cannabinoid receptor 1 (P21554 whole entry): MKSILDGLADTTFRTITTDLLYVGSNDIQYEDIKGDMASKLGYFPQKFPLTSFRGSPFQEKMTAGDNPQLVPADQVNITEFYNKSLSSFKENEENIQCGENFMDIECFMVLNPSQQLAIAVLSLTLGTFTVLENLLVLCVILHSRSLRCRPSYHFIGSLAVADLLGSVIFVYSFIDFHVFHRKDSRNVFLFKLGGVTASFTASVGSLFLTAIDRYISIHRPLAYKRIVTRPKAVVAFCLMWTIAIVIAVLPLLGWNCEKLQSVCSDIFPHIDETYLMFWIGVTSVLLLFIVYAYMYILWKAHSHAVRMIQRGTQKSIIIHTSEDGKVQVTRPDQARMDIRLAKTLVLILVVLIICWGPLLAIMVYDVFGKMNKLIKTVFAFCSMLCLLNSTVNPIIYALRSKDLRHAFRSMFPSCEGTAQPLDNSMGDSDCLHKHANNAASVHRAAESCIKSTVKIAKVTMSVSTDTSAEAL
Sequence of Vascular endothelial growth factor receptor 2 (P35968 whole entry): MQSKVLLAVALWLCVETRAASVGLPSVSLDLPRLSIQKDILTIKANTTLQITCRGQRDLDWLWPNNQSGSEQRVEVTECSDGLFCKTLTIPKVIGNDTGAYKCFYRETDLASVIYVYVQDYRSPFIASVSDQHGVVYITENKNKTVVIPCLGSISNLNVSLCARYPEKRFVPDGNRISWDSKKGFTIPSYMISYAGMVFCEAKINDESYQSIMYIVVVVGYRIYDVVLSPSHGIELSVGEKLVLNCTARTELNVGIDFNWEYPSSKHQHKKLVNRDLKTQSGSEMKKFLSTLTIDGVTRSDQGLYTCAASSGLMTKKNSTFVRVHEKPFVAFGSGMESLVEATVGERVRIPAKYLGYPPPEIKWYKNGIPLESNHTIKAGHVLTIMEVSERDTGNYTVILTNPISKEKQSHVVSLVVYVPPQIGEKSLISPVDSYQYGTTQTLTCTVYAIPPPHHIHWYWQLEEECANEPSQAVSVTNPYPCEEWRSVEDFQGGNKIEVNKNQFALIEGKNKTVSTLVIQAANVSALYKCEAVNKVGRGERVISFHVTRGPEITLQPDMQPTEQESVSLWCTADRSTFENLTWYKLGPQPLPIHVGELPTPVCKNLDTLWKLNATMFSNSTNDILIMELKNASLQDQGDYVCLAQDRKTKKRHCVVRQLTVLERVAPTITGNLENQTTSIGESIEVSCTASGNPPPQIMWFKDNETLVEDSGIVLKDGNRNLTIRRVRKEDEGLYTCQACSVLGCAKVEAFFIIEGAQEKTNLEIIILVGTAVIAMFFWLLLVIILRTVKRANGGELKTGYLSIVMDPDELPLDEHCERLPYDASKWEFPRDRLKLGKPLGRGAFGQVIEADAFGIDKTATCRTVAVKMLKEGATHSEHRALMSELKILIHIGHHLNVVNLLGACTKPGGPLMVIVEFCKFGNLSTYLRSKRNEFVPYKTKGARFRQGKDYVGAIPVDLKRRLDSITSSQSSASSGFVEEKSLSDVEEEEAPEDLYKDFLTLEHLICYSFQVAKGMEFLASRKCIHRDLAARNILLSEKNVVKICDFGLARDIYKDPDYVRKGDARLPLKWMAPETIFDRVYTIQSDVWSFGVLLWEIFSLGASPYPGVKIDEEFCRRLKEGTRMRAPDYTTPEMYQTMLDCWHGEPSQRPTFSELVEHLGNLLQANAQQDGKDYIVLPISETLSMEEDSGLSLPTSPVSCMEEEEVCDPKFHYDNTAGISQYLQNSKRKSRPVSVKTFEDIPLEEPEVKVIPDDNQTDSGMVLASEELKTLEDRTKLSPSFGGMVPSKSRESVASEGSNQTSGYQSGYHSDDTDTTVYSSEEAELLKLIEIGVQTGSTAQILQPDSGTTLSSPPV

Structure (SMILES)	AC50 (Histamine H1 receptor) [µM]	AC50 (Cannabinoid receptor 1) [µM]	AC50 (Estrogen receptor) [µM]	AC50 [1] [µM]	AC50 (Endothelin-1 receptor) [µM]	AC50 [2] [µM]	AC50 [3] [µM]	AC50 [4] [µM]	AC50 (Progesterone receptor) [µM]
O=C1Nc2ccc(Cl)cc2[C@@](C#CC2CC2)(C(F)(F)F)O1 [EFAVIRENZ]	> 30	> 30	> 30	> 10	> 30	–	–	–	–
CO[C@H]1C[C@@H]2CC[C@@H](C)[C@@](O)(O2)C(=O)C(=O)N2CCCC[C@H]2C(=O)O[C@H]([C@H](C)C[C@@H]2CC[C@@H](O)[C@H](OC)C2)CC(=O)[C@H](C)/C=C(\C)[C@@H](O)[C@@H](OC)C(=O)[C@H](C)C[C@H](C)/C=C/C=C/C=C/1C [SIROLIMUS]	–	> 30	–	> 10	> 30	> 30	26.6	> 30	> 30
C1CCC(C(CC2CCCCN2)C2CCCCC2)CC1 (stereo unspecified) [PERHEXILINE]	–	> 30	> 30	–	> 30	–	–	–	–
Cc1cn([C@H]2C=C[C@@H](CO)O2)c(=O)[nH]c1=O [STAVUDINE]	–	> 30	–	> 10	> 30	> 30	> 30	> 30	> 30
CCC(C)n1ncn(-c2ccc(N3CCN(c4ccc(OCC5COC(Cn6cncn6)(c6ccc(Cl)cc6Cl)O5)cc4)CC3)cc2)c1=O (stereo unspecified) [ITRACONAZOLE]	–	> 30	–	> 30	> 30	–	–	> 30	–
Cc1ccc(-c2cc(C(F)(F)F)nn2-c2ccc(S(N)(=O)=O)cc2)cc1 [CELECOXIB]	–	> 30	–	> 10	> 30	–	–	> 30	–
Clc1ccc2nsnc2c1NC1=NCCN1 [TIZANIDINE]	> 10	–	–	> 10	> 30	–	–	> 30	–
C=CCc1ccccc1OCC(O)CNC(C)C (stereo unspecified) [ALPRENOLOL]	> 30	> 30	–	> 30	> 30	> 0.3	> 0.3	–	> 0.3
CS(=O)(=O)c1ccc(C2=C(c3ccccc3)C(=O)OC2)cc1 [ROFECOXIB]	–	> 30	–	> 10	> 30	> 30	–	> 30	> 30
CNC1Cc2ccccc2N(C)c2ccccc21 (stereo unspecified) [METAPRAMINE]	0.34	> 30	> 30	–	> 30	–	–	–	–
C[C@]12CCC(=O)C=C1CC[C@@H]1[C@@H]2[C@@H](O)C[C@@]2(C)[C@H]1CC[C@]2(O)C(=O)CO [HYDROCORTISONE]	–	> 30	–	> 10	> 30	–	–	> 30	–
CC[C@H]1OC(=O)[C@H](C)[C@@H](O[C@H]2C[C@@](C)(OC)[C@@H](O)[C@H](C)O2)[C@H](C)[C@@H](O[C@@H]2O[C@H](C)C[C@H](N(C)C)[C@H]2O)[C@](C)(O)C[C@@H](C)CN(C)[C@H](C)[C@@H](O)[C@]1(C)O [AZITHROMYCIN]	–	> 30	–	> 10	> 30	–	> 30	> 30	> 30
CC[C@H]1[C@@H](O)[C@@H]2[C@H](CC[C@]3(C)[C@@H]([C@H](C)CCC(=O)O)CC[C@@H]23)[C@@]2(C)CC[C@@H](O)C[C@@H]12 [OBETICHOLIC ACID]	> 30	> 30	–	> 30	> 30	> 30	> 30	–	> 30
NCC(CC(=O)O)c1ccc(Cl)cc1 (stereo unspecified) [BACLOFEN]	–	> 30	–	> 10	> 30	> 30	> 30	> 30	> 30
c1ccc([C@H]2CN3CCSC3=N2)cc1 [LEVAMISOLE]	–	> 30	> 30	> 30	> 30	–	–	–	–
COc1ccc(CC(C)(C)NC[C@H](O)c2cc(O)cc3c2OCC(=O)N3)cc1 [OLODATEROL]	> 30	> 30	> 30	–	> 30	–	–	–	–
CCOC(=O)[C@H](CCc1ccccc1)N[C@@H](C)C(=O)N1[C@H](C(=O)O)C[C@@H]2CCC[C@@H]21	–	> 30	–	> 10	> 30	–	–	> 30	–
CC(C)C[C@H]1C(=O)N2CCC[C@H]2[C@]2(O)O[C@](NC(=O)[C@@H]3C=C4c5cccc6[nH]c(Br)c(c56)C[C@H]4N(C)C3)(C(C)C)C(=O)N12 [BROMOCRIPTINE]	–	> 30	–	> 10	> 30	> 30	2.49	> 30	> 30
Cc1cn([C@H]2C[C@H](N=[N+]=[N-])[C@@H](CO)O2)c(=O)[nH]c1=O [ZIDOVUDINE]	–	> 30	–	> 10	> 30	> 30	> 30	> 30	> 30
CN(C)CCC(c1ccc(Cl)cc1)c1ccccn1 (stereo unspecified) [CHLORPHENIRAMINE]	–	> 30	–	> 10	> 30	–	–	> 30	–
N[C@@H]1[C@H]2CN(c3nc4c(cc3F)c(=O)c(C(=O)O)cn4-c3ccc(F)cc3F)C[C@@H]12 [TROVAFLOXACIN]	–	> 30	> 30	–	> 30	–	–	–	–
c1cnc(N2CCN(Cc3ccc4c(c3)OCO4)CC2)nc1 [PIRIBEDIL]	> 30	> 30	> 30	–	> 30	–	–	–	–
CN(C)CCC=C1c2ccccc2C(C)(C)c2ccccc21	0.0369	> 30	> 30	–	> 30	–	–	–	–
CC1=C(C(=O)O)N2C(=O)[C@@H](NC(=O)[C@H](N)c3ccccc3)[C@H]2SC1 [CEPHALEXIN ANHYDROUS]	–	> 30	–	> 10	> 30	–	–	> 30	–
O=C(OCC(O)CO)c1ccccc1Nc1ccnc2cc(Cl)ccc12 (stereo unspecified) [GLAFENINE]	> 30	> 30	> 30	–	> 30	6.96	4.63	–	> 30
C[C@H]1CNCCc2ccc(Cl)cc21 [LORCASERIN]	28	2.6	> 30	–	> 30	–	–	–	–
